Consider 16 compounds from US8193189B2, “Quinoxaline derivatives as tyrosine kinase activity inhibitors” (Novartis AG, priority 2007, dated 2012).

For orientation: IC50 means the point on the concentration scale where inhibition reaches its midpoint.

One experiment concerns the target T1, GST-TYK2(888-1187) (Homo sapiens, UniProt P29597).
T1 construct: GST-TYK2(888-1187); made in house
T1 sequence (P29597 888-1187): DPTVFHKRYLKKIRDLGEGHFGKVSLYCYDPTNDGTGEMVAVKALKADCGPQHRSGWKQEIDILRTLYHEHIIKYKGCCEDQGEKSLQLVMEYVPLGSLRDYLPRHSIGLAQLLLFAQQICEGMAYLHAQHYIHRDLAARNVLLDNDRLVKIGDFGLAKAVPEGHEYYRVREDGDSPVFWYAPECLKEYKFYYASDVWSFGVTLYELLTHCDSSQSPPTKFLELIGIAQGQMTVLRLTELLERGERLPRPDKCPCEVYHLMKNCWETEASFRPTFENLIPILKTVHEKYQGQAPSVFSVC
The experiment in a line: EPK JAK-family kinases profiling assay (Caliper mobility shift), TYK2. In kind it is biochemical. To be noted: ATP 30 μM, 40 nM kinase. The text has this:
All four kinases of the JAK-family kinases were used as purified recombinant GST-fusion proteins, containing the active kinase domains. GST-JAK1(866-1154), GST-JAK3(811-1124), and GST-TYK2(888-1187) were expressed and purified by affinity chromatography at the EPK biology unit. GST-JAK2(808-1132) was purchased from Invitrogen (Carlsbad, USA, #4288).
The kinase assays were based on the Caliper mobility shift assay using the LabChip 3000 systems. This technology is similar to capillary electrophoresis and uses charge driven separation of substrate and product in a microfluidic chip.
All kinase reactions were performed in 384 well microtiter plates in a total reaction volume of 18 μl. The assay plates were prepared with 0.1 μl per well of test compound in the appropriate test concentration, as described under the section “preparation of compound dilutions”. The reactions were started by combining 9 μl of substrate mix (consisting of peptide and ATP) with 9 μl of kinase dilution. The reactions were incubated for 60 minutes at 30° C. and stopped by adding 70 μl of stop buffer (100 mM Hepes, 5% DMSO, 0.1% Coating reagent, 10 mM EDTA, 0.015% Brij 35).
Fluorescently labeled synthetic peptides were used as substrates in all reactions. […] Specific assay conditions are described in Table 1:
The terminated reactions were transferred to the Caliper LabChip 3000 reader and the turnover of each reaction was measured by determining the substrate/product ratio.
Test compounds were dissolved in DMSO (10 mM) and transferred into 1.4 mL flat bottom or V-shaped Matrix tubes carrying a unique 2D matrix chip by individual compound hubs. The numbers of these chips were distinctively linked to the individual compound identification numbers. The stock solutions were stored at −20° C. if not used immediately. For the test procedure the vials were defrosted and identified by a scanner whereby a working sheet was generated that guided the subsequent working steps.
Compound dilutions were made in 96 well plates. This format enabled the assay of maximally 40 individual test compounds at 8 concentrations (single points) including 4 reference compounds. The dilution protocol included the production of pre-dilution plates, master plates and assay plates:
Pre-dilution plates: 96 polypropylene well plates were used as pre-dilution plates. A total of 4 pre-dilution plates were prepared including 10 test compounds each on the plate positions A1-A10, one standard compound at A11 and one DMSO control at A12. All dilution steps were done on a HamiltonSTAR robot.
Master plates: 100 μL of individual compound dilutions including standard compound and controls of the 4 “pre-dilution plates” were transferred into a 384 “master plate” including the following concentrations 1′820, 564, 182, 54.6, 18.2, 5.46, 1.82 and 0.546 μM, respectively in 90% of DMSO.
Assay plates: Identical assay plates were then prepared by pipetting 100 nL each of compound dilutions of the master plates into 384-well “assay plates”. […] The preparation of the master plates were handled by the Matrix PlateMate Plus robot and replication of assay plates by the HummingBird robot.

The target of another experiment is T2, GST-JAK1(866-1154) (Homo sapiens, UniProt P23458).
T2 construct: GST-JAK1(866-1154); made in house
T2 sequence (P23458 866-1154): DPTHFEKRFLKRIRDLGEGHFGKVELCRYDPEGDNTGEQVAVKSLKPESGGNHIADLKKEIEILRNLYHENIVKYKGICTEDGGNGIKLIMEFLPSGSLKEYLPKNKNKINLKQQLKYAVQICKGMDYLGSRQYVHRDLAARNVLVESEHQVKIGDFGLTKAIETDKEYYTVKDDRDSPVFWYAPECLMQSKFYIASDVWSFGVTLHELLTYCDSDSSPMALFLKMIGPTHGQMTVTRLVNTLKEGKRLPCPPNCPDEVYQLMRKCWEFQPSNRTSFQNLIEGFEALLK
Briefly: EPK JAK-family kinases profiling assay (Caliper mobility shift), JAK1. In kind it is biochemical. To be noted: ATP 40 μM, 50 nM kinase. Summed up: (§1)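 Turnover was read as substrate/product ratio after mobility-shift capillary-like separation of each reaction, run for 60 min at 30 °C with GST-tagged kinase domain, labelled peptide and ATP, and terminated with EDTA stop buffer.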

The target of a further experiment is T3, GST-JAK2(808-1132) (Homo sapiens, UniProt O60674).
T3 construct: GST-JAK2(808-1132); purchased Invitrogen (Carlsbad, USA) #4288
T3 sequence (O60674 808-1132): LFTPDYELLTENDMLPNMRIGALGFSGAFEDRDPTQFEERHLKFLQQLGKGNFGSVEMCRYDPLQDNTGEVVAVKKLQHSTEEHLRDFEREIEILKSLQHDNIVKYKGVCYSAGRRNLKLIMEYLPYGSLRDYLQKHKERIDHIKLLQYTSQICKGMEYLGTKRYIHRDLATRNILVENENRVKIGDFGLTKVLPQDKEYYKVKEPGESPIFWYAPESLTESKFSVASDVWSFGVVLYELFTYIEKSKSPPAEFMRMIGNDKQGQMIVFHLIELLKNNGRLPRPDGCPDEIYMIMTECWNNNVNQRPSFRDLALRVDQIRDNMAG
The experiment in a line: EPK JAK-family kinases profiling assay (Caliper mobility shift), JAK2. To be noted: ATP 20 μM. It counts as biochemical. The gist of the method: as §1

The test system of experiment [1] is JAK/STAT pathway (JAK1/JAK2-dependent nuclear translocation of STAT1-GFP). Briefly: Inhibition of the JAK/STAT pathway: IFN-γ stimulated nuclear translocation of STAT1-GFP in HT1080 fibrosarcoma cells. It counts as cell-based. To be noted: Homo sapiens, HT-1080; HT1080 STAT1-GFP cells, 100 ng/ml IFN-γ 2 hours, compound added 30 min before; read-out: STAT1translo IC50. The gist of the method: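 HT1080 cells stably expressing STAT1-GFP, compounds added 30 min before IFN-γ stimulation at final 10 μM down to 0.003 μM (0.1% DMSO). Nuclear-cytoplasmic GFP intensity differential quantified by automated imaging with Hoechst nuclear mask, ≥1000 cells per well, averaged per well.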

Another experiment deals with T4, GST-JAK3(811-1124) (Homo sapiens, UniProt P52333).
T4 construct: GST-JAK3(811-1124); made in house
T4 sequence (P52333 811-1124): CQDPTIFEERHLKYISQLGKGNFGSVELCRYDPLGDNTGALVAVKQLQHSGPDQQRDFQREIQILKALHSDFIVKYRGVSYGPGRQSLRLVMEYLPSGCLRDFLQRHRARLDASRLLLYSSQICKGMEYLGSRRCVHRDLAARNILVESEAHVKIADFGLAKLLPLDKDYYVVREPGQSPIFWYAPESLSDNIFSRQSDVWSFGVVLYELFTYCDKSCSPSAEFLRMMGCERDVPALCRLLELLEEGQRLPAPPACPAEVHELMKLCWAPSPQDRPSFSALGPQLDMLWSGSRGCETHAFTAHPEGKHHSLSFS
The experiment in a line: EPK JAK-family kinases profiling assay (Caliper mobility shift), JAK3. It counts as biochemical. To be noted: ATP 80 μM, 6 nM kinase. The gist of the method:
as §1

Structures are written as SMILES. Some results are limits rather than exact numbers.

`Fc1cc(-c2cccc3ncc(-c4cnn(C5CCCNC5)c4)nc23)cc(F)c1CN1CCOCC1` (racemic) [Example 160, (rac)-8-(3,5-Difluoro-4-morpholin-4-ylmethyl-phenyl)-2-(1-piperidin-3-yl-1H-pyrazol-4-yl)-quinoxaline]: the IC50 turned out to be 400 nM at GST-TYK2(888-1187), 360 nM on GST-JAK1(866-1154) and 6.4 nM on GST-JAK2(808-1132) (1.8 nM kinase).

In the case of `COc1cc(-c2cnc3cccc(-c4ccc(CC(=O)N5CCS(=O)(=O)CC5)cc4)c3n2)cc(OC)c1OC` [Example 13, 1-(1,1-Dioxido-thiomorpholin-4-yl)-2-{4-[3-(3,4,5-trimethoxy-phenyl)-quinoxalin-5-yl]-phenyl}-ethanone], the IC50 is 235 nM on GST-TYK2(888-1187), 27 nM on GST-JAK1(866-1154) and 5.1 nM at GST-JAK2(808-1132) ([…] kinase).

As to `CCN1CCN(C(=O)c2ccc(-c3cnc4cccc(-c5cc(F)c(CN6CCOCC6)c(F)c5)c4n3)cc2C)CC1` [Example 82, {4-[8-(3,5-Difluoro-4-morpholin-4-ylmethyl-phenyl)-quinoxalin-2-yl]-2-methyl-phenyl}-(4-ethyl-piperazin-1-yl)-methanone], the IC50 on GST-JAK1(866-1154) is 490 nM; on GST-JAK2(808-1132) (1.8 nM kinase) it was 14 nM; in experiment [1], 946 nM; at GST-JAK3(811-1124), 1250 nM.

As to `CC(=O)N1CCC(n2cc(-c3cnc4cccc(-c5cc(F)c(CN6CCOCC6)c(F)c5)c4n3)cn2)CC1` [Example 121, 1-(4-{4-[8-(3,5-Difluoro-4-morpholin-4-ylmethyl-phenyl)-quinoxalin-2-yl]-pyrazol-1-yl}-piperidin-1-yl)-ethanone], the IC50 at GST-TYK2(888-1187) was 230 nM; at GST-JAK1(866-1154) it was 200 nM; on GST-JAK2(808-1132) (1.8 nM kinase), 3.8 nM.

Regarding `Cc1cc(CN2CCOCC2)ccc1-c1cccc2ncc(-c3cnn(C4CCNCC4)c3)nc12` [Example 147, 8-(2-Methyl-4-morpholin-4-ylmethyl-phenyl)-2-(1-piperidin-4-yl-1H-pyrazol-4-yl)-quinoxaline], the figures for the IC50 on GST-TYK2(888-1187), at GST-JAK1(866-1154) and at GST-JAK2(808-1132) (1.8 nM kinase) were 1000 nM, 1500 nM and 97 nM, respectively.

Regarding `Cc1nn(C2CCNCC2)c(C)c1-c1cnc2cccc(-c3cc(F)c(CN4CCOCC4)c(F)c3)c2n1` [Example 155, 8-(3,5-Difluoro-4-morpholin-4-ylmethyl-phenyl)-2-(3,5-dimethyl-1-piperidin-4-yl-1H-pyrazol-4-yl)-quinoxaline], the IC50 at GST-TYK2(888-1187) came to 7600 nM; on GST-JAK1(866-1154), 3400 nM; at GST-JAK2(808-1132) (1.8 nM kinase), 63 nM.

As to `Cc1nn(C2CCNCC2)c(C)c1-c1cnc2cccc(-c3ccc(CN4CCOCC4)cc3)c2n1` [Example 156, 2-(3,5-Dimethyl-1-piperidin-4-yl-1H-pyrazol-4-yl)-8-(4-morpholin-4-ylmethyl-phenyl)-quinoxaline], the figures for the IC50 on GST-TYK2(888-1187), at GST-JAK1(866-1154) and at GST-JAK2(808-1132) (1.8 nM kinase) were more than 10000 nM, more than 10000 nM and 950 nM, respectively.

`Cc1nn(C2CCNCC2)c(C)c1-c1cnc2cccc(-c3ccc(CN4CCS(=O)(=O)CC4)cc3)c2n1` [Example 157, 2-(3,5-Dimethyl-1-piperidin-4-yl-1H-pyrazol-4-yl)-8-[4-(1,1-dioxido-thiomorpholin-4-ylmethyl)-phenyl]-quinoxaline]: the IC50 on GST-TYK2(888-1187) was 6400 nM; on GST-JAK1(866-1154), 3600 nM; on GST-JAK2(808-1132) (1.8 nM kinase) it was 140 nM.

`Cc1cc(-c2cccc3ncc(-c4c(C)nn(C5CCNCC5)c4C)nc23)ccc1CN1CCOCC1` [Example 158, 2-(3,5-Dimethyl-1-piperidin-4-yl-1H-pyrazol-4-yl)-8-(3-methyl-4-morpholin-4-ylmethyl-phenyl)-quinoxaline]: the IC50 at GST-TYK2(888-1187) is more than 10000 nM; on GST-JAK1(866-1154), more than 10000 nM; at GST-JAK2(808-1132) (1.8 nM kinase) it was 650 nM.

On to `COc1ccc(-c2cnc3cccc(-c4ccc(CN5CCS(=O)(=O)CC5)cc4)c3n2)cc1N1CCN(C)CC1` [Example 161, 8-[4-(1,1-Dioxido-thiomorpholin-4-ylmethyl)-phenyl]-2-[4-methoxy-3-(4-methyl-piperazin-1-yl)-phenyl]-quinoxaline], for which the IC50 was 480 nM on GST-TYK2(888-1187), 110 nM at GST-JAK1(866-1154) and less than 3 nM on GST-JAK2(808-1132) (1.8 nM kinase).

`COc1ccc(-c2cnc3cccc(-c4cc(F)c(CN5CCOCC5)c(F)c4)c3n2)cc1N1CCN(C)CC1` [Example 162, 8-(3,5-Difluoro-4-morpholin-4-ylmethyl-phenyl)-2-[4-methoxy-3-(4-methyl-piperazin-1-yl)-phenyl]-quinoxaline]: the results for the IC50 on GST-TYK2(888-1187), at GST-JAK1(866-1154) and on GST-JAK2(808-1132) (1.8 nM kinase) were 360 nM, 69 nM and 5.7 nM, respectively.

For the compound `COc1ccc(-c2cnc3cccc(-c4cc(F)c(CN5CCS(=O)(=O)CC5)c(F)c4)c3n2)cc1N1CCN(C)CC1` [Example 163, 8-[4-(1,1-Dioxido-thiomorpholin-4-ylmethyl)-3,5-difluoro-phenyl]-2-[4-methoxy-3-(4-methyl-piperazin-1-yl)-phenyl]-quinoxaline], the IC50 on GST-TYK2(888-1187) is 88 nM; on GST-JAK1(866-1154), 77 nM; at GST-JAK2(808-1132) (1.8 nM kinase), less than 3 nM.

For the compound `CN1CCN(C(=O)c2cccc(-c3cnc4cccc(-c5cc(F)c(CN6CCOCC6)c(F)c5)c4n3)c2)CC1` [Example 164, {3-[8-(3,5-Difluoro-4-morpholin-4-ylmethyl-phenyl)-quinoxalin-2-yl]-phenyl}-(4-methyl-piperazin-1-yl)-methanone], the IC50 on GST-TYK2(888-1187) was 2000 nM; at GST-JAK1(866-1154), 300 nM; on GST-JAK2(808-1132) (1.8 nM kinase) it was 50 nM.

For the compound `CN1CCN(C(=O)c2cccc(-c3cnc4cccc(-c5ccc(CN6CCS(=O)(=O)CC6)cc5)c4n3)c2)CC1` [Example 165, (3-{8-[4-(1,1-Dioxido-thiomorpholin-4-ylmethyl)-phenyl]-quinoxalin-2-yl}-phenyl)-(4-methyl-piperazin-1-yl)-methanone], the IC50 on GST-TYK2(888-1187) turned out to be 1200 nM; on GST-JAK1(866-1154), 160 nM; on GST-JAK2(808-1132) (1.8 nM kinase) it was 74 nM.

Consider `CN1CCN(C(=O)c2cccc(-c3cnc4cccc(-c5cc(F)c(CN6CCS(=O)(=O)CC6)c(F)c5)c4n3)c2)CC1` [Example 166, (3-{8-[4-(1,1-Dioxido-thiomorpholin-4-ylmethyl)-3,5-difluoro-phenyl]-quinoxalin-2-yl}-phenyl)-(4-methyl-piperazin-1-yl)-methanone], for which the IC50 is 270 nM at GST-TYK2(888-1187), 70 nM at GST-JAK1(866-1154) and 11 nM at GST-JAK2(808-1132) (1.8 nM kinase).

With `CN1CCN(C(=O)c2cc(-c3cnc4cccc(-c5cc(F)c(CN6CCOCC6)c(F)c5)c4n3)cn2C)CC1` [Example 167, {4-[8-(3,5-Difluoro-4-morpholin-4-ylmethyl-phenyl)-quinoxalin-2-yl]-1-methyl-1H-pyrrol-2-yl}-(4-methyl-piperazin-1-yl)-methanone], the half-inhibitory concentration (IC50) was determined as 180 nM on GST-TYK2(888-1187), 53 nM on GST-JAK1(866-1154) and 8.1 nM at GST-JAK2(808-1132) (1.8 nM kinase).
